Patent publication US8822198B2, “Method for optimizing a biopharmaceutical production process” (priority 2009, dated 2014)
“Also recorded” adds a separate entry of the source.

Legend:
[1] = test system: CHO; experiment: Fermentation verification buffer system (Example 4); assay type: cell-based, Chinese Hamster; settings: CO2-regulated bioreactors, NaHCO3 0-16 mM, FIG. 6
Excerpt: In six CO2-regulated bioreactors the buffer systems TES and Sod-β are used with different concentrations of NaHCO3, in order to determine the optimum concentration of NaHCO3 in the medium. […] Medium B, NaHCO3-free, MOPS-free+weighed amount/stock solution buffer substance(s) • Feeding: […] NaOH (1.2M) (no CO2) • pCO2: day 0-3 5%, day 3-11 3% The buffer systems used with different concentrations of NaHCO3 are shown in Table 6. [table]

[2] = test system: CHO; experiment: Shake flask experiment, buffer screen (Example 2); assay type: cell-based, Chinese Hamster; settings: shake flasks; for cell growth / buffer performance: 11 d, incubator 1
Description: The selection of the buffer systems (cell-free) is now operated with cells. The criterion for the choice of the buffer systems used in this experiment is an acceptable osmolality and good buffer characteristics during the introduction of gas into the shake flask incubator. […] The objective is to determine the best buffer medium, in relation to the growth performance of the cell, as a basis for a subsequent fermentation in the bioreactor. The preparation is carried out analytically as precisely as possible. The pH values are adjusted by BGA comparison. Lower buffer concentrations are added by means of stock solutions. After manufacture, sterile filtration is carried out. As a safety measure the experiments are carried out with n=2. To achieve two different gas supply variants, the experiments are split between two different incubators. A summary can be found in the experiment plan. […] The analysis on d0 (day 0) was carried out immediately after the seeding under the LAF box, i.e. without any previous effect of the CO2 atmosphere of the incubator.

[3] = test system: CHO; settings: acid added on day 3, FIG. 9B
Description: Different acids are added to three CO2-regulated bioreactors for a pH shift from 6.95 to 6.8 on day 3. The concentrations of the acid solutions are chosen such that the quantities of substance required, which have been determined beforehand in a titration, are present in 50 ml of solution.
The test set-up is described below: • Platform: Bioreactor/Multifermenter • Method: Fed Batch • Cell: CHO • Seeding density: 3×10^5 vc/mL • Start volume: 1.8 L • Run time: 11 days • Medium: Medium B, NaHCO3-free, MOPS-free+Sod-β (25 mM) • Feeding: Feed I continuously from day 2 • Temperature: 37° C. • pO2: 60% • Speed: 160 rpm • pH: day 0-3 7.00±0.05, day 3-11 6.80±0.05 • pH regulation: NaOH (1.2M) (no CO2)

[4] = test system: CHO; experiment: Bioreactor fermentation, pCO2 regulated/unregulated and buffer systems (Example 3); assay type: cell-based, Chinese Hamster
Description: The fermentation using the multifermenter is again preceded by an optimising test using SDR. In this preliminary test, in accordance with Example 1, different NaHCO3 concentrations are tested in conjunction with the media Sod-β/H and TES/K. In the experiment, in addition to the evaluation by the drop in pO2, an identically covered well plate is used having pH sensors. […] (The data from the preliminary test are not shown here.) Fermentation takes place in two multifermenters (corresponding to twelve individual fermenters) with different media combinations. The procedure and handling are based on the sections described under the headings Equipment, Methods and Operating steps. [table] The CO2 profile shown above applies to the regulated bioreactor FS 33.1. in the remaining fermenters, after the seeding (d0), for a specific length of time at a specific control magnitude, CO2(gas) is added in order to provide the cells with a minimum of dissolved CO2. […] In the context of determining cell density it was jointly decided that no further manual interventions are required for supplying CO2 gas. [table]

[5] = test system: CHO; settings: Na salt added on day 3, FIG. 8
Description: In 10 250 ml shake flasks, cells are tested for their acid tolerance with the addition of sodium salts. The salt solutions are selected such that the quantities of acids determined by titration beforehand are present in 1.5 ml of solution for a pH shift from 7.1 to 6.7. On day 3 these 1.5 ml of the different salt solutions are added to the shake flasks to simulate a pH shift.

Row | SMILES | cell growth / buffer performance [2] | standardised product concentration [3] | also measured
1 | O.O.O.O.O.O=P([O-])([O-])OC(CO)CO.[Na+].[Na+] [Sod-β, sodium-β-glycerophosphate-pentahydrate] | best buffer substances |  | standardised product concentration with different NaHCO3 concentrations [1]: not dependent on the amount of NaHCO3 in the medium; also recorded: productivity of the cells is independent of the concentration of NaHCO3
2 | O=P(O)(O)O [phosphoric acid] |  | same product concentrations | 
3 | O=S(=O)(O)CCNC(CO)(CO)CO [TES, N-tris(hydroxymethyl)methyl-2-aminoethanesulphonic acid] | best buffer substances |  | standardised product concentration with different NaHCO3 concentrations [1]: same product concentrations both with and without the use of NaHCO3; also recorded: identical product concentrations; titre concentration compared with the control ([4]; FIG. 5C, control NaHCO3 36 mmol/L): at the same level as those of the control
4 | NC(CO)(CO)CO [Trizma base] | runs poorly |  | toxicity ([2]; any concentration, pH stable): may be some toxicity
5 | O=S(=O)(O)O [sulphuric acid] |  | same product concentrations | 
6 | [Na+].[OH-] [NaOH, sodium hydroxide solution] |  |  | product formation rate by pH regulation agent ([4]; NaOH versus Na2CO3, FIG. 4): better product formation rate
7 | Cl [hydrochloric acid] |  | same product concentrations | 
8 | CC(=O)[O-].[Na+] [sodium acetate] |  |  | toxic effect on cell growth [5]: toxic effect
